From patent publication US20250304623A1, “PEPTIDES FOR INTRACELLULAR DELIVERY” (UNIVERSIDADE DE SANTIAGO DE COMPOSTELA, priority 2022, published 2025)
*: point of attachment. NHNH2 = NN*

How the values were obtained:
Assay type in all cases: cell-based
A549 cells [1] = assay: EGFP mRNA delivery, robotic library screening, A549
Experimental: (§1) Cells were seeded in a 96 well plate the day before the experiment at a concentration of 50,000 cell/mL (100 μL/w) in DMEM+10% FBS+1% Gln-Abt. For robotic library screening, the delivery of EGFP-mRNA (from TriLink, fully substituted with 5-methoxyuridine, capped and polyadenylated; TriLink, CleanCap® EGFP mRNA (5moU), ref. L-7201) in six different cell lines was performed. Amphiphilic molecule stock solutions were prepared in DMSO as described above and diluted in DMEM to afford a range of concentrations. The solutions of EGFP-mRNA/amphiphilic molecule complexes were freshly prepared prior to the transfection experiments. 35 μL of the corresponding amphiphile were added to 10 μL of a solution of EGFP-mRNA at 10 ng/μL in DMEM. The mixture was shaken for 30 min at room temperature before the addition to the cells. The cell medium was aspirated, and cells were washed with PBS twice. Cells were covered with 39 μL of DMEM and 11 μL of the complex's solution were added to the cells and incubated for 4 h (final concentration of peptide=2.5, 5 and 10 μM; final concentration of EGFP-mRNA=25 ng/well). After the incubation, the medium was replaced by 100 μL of fresh DMEM supplemented with 10% FBS. The total EGFP fluorescence was quantified after 72 h in a well plate reader. Amphiphile transfection efficiency was compared and normalized to Lipofectamine® MessengerMax efficiency (value of 1 in Tables 1-5 and 7; double underlined numbers). All experiments were done in triplicate.
(§2) Tables 1-7: RLuc (pDNA) or EGFP (mRNA) expression levels were normalized to Lipofectamine reagents (value=1) and expressed as fold-times signal increase. In the case of siRNA, the siRNA treated cells fluorescence was compared with siMOCK control fluorescence, while Cas9-RNP mediated knockout was measured against the fluorescence of untreated cells. In both siRNA and Cas9-RNP, values are expressed as % fluorescence reduction. Amphiphile concentration was 5 μM in all cases. All experiments were performed in triplicate.
(§3) Tables 14-19 show the mean (triplicates) fluorescence intensity measured after the transfection of EGFP mRNA by different amphiphiles at different concentrations in a variety of cell lines. Background fluorescence values, accounted by untreated control cells, were subtracted for processing.

HepG2 cells [2] = assay: RLuc pDNA delivery, robotic library screening, HepG2
Summary of the method: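 After the 4 h exposure the complexes were replaced with fresh DMEM plus 10% FBS. At 72 hours cells were washed with HBSS, kept 30 minutes at 37° C. for basal readings, then given coelenterazine h (5 μM final) for 10 minutes before total luminescence was read. Triplicate means had untransfected background subtracted and were also expressed relative to Lipofectamine® 2000 set at 1.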

A549 cells [3] = assay: RLuc pDNA delivery, robotic library screening, A549
Summary of the method: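 A549 cells in DMEM+10% FBS were washed twice with PBS and exposed for 4 h to amphiphile/RLuc pDNA complexes prepared from DMSO stocks diluted in DMEM. After medium replacement and 72 hours, cells in HBSS were incubated at 37° C. for 30 minutes, basal then total luminescence measured after 5 μM coelenterazine h; background from untransfected cells was subtracted.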

ARPE19 cells = assay: EGFP mRNA delivery, robotic library screening, ARPE19
Experimental: as §1, §2, §3

HepG2 cells [4] = assay: EGFP mRNA delivery, robotic library screening, HepG2; conditions: HepG2 cells
Summary of the method: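 This robotic library screen tested delivery of CleanCap EGFP mRNA (5moU) into HepG2 cells using amphiphilic molecules. Complexes were freshly prepared at room temperature and added to the cells, and the medium was then replaced with fresh DMEM plus 10% FBS. Total EGFP fluorescence was measured in a plate reader at 72 h in triplicate, with untreated-cell background subtracted.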

Substance: Ac-RK*LRK*K*L-NH2 (Ac-RK(NHNH2)LRK(NHNH2)K(NHNH2)L-NH2; not fully specified; printed as Ac-RK*LRK*K*L-NH2; also: K*2,K*5,K*6: native or modified lysine (ε-amide to a linker)) [Peptide 7.3]
- mean fluorescence intensity (EGFP mRNA) (A549 cells [1]; Dodecanal, 2.5 μM): 2894
- mean fluorescence intensity (EGFP mRNA) (A549 cells [1]; Dodecanal, 5 μM): 4662
- mean fluorescence intensity (EGFP mRNA) (A549 cells [1]; Dodecanal, 10 μM): 248
- mean fluorescence intensity (EGFP mRNA) (A549 cells [1]; Myristoleyl, 2.5 μM): 4491
- mean fluorescence intensity (EGFP mRNA) (A549 cells [1]; Myristoleyl, 5 μM): 5378
- mean fluorescence intensity (EGFP mRNA) (A549 cells [1]; Myristoleyl, 10 μM): 228
- mean fluorescence intensity (EGFP mRNA) (A549 cells [1]; Oleyl, 2.5 μM): 218
- mean fluorescence intensity (EGFP mRNA) (A549 cells [1]; Oleyl, 5 μM): 1205
- mean fluorescence intensity (EGFP mRNA) (A549 cells [1]; Oleyl, 10 μM): 1046
- mean fluorescence intensity (EGFP mRNA) (A549 cells [1]; Palmitoleyl, 2.5 μM): 2134
- mean fluorescence intensity (EGFP mRNA) (A549 cells [1]; Palmitoleyl, 5 μM): 3484
- mean fluorescence intensity (EGFP mRNA) (A549 cells [1]; Petroselinyl, 2.5 μM): 1317
- mean fluorescence intensity (EGFP mRNA) (A549 cells [1]; Petroselinyl, 5 μM): 6947
- mean fluorescence intensity (EGFP mRNA) (A549 cells [1]; Petroselinyl, 10 μM): 641
- mean luminescent intensity (RLuc pDNA) (HepG2 cells [2]; Dodecanal, 10 μM): 4529 RLU
- mean luminescent intensity (RLuc pDNA) (HepG2 cells [2]; Dodecanal, 15 μM): 14804 RLU
- mean luminescent intensity (RLuc pDNA) (HepG2 cells [2]; Myristoleyl, 5 μM): 109155 RLU
- mean luminescent intensity (RLuc pDNA) (HepG2 cells [2]; Myristoleyl, 10 μM): 294365 RLU
- mean luminescent intensity (RLuc pDNA) (HepG2 cells [2]; Myristoleyl, 15 μM): 241385 RLU
- mean luminescent intensity (RLuc pDNA) (HepG2 cells [2]; Palmitoleyl, 5 μM): 107745 RLU
- mean luminescent intensity (RLuc pDNA) (HepG2 cells [2]; Palmitoleyl, 10 μM): 84207 RLU
- mean luminescent intensity (RLuc pDNA) (HepG2 cells [2]; Palmitoleyl, 15 μM): 46358 RLU
- mean luminescent intensity (RLuc pDNA) (HepG2 cells [2]; Petroselinyl, 5 μM): 228306 RLU
- mean luminescent intensity (RLuc pDNA) (HepG2 cells [2]; Petroselinyl, 10 μM): 150739 RLU
- mean luminescent intensity (RLuc pDNA) (HepG2 cells [2]; Petroselinyl, 15 μM): 51938 RLU
- mean luminescent intensity (RLuc pDNA) (A549 cells [3]; Dodecanal, 5 μM): 483 RLU
- mean luminescent intensity (RLuc pDNA) (A549 cells [3]; Dodecanal, 15 μM): 777 RLU
- mean luminescent intensity (RLuc pDNA) (A549 cells [3]; Palmitoleyl, 10 μM): 3679 RLU
- mean luminescent intensity (RLuc pDNA) (A549 cells [3]; Petroselinyl, 5 μM): 4314 RLU
- mean fluorescence intensity (EGFP mRNA) (ARPE19 cells; Dodecanal, 2.5 μM): 9507
- mean fluorescence intensity (EGFP mRNA) (ARPE19 cells; Dodecanal, 5 μM): 16576
- mean fluorescence intensity (EGFP mRNA) (ARPE19 cells; Dodecanal, 10 μM): 6912
- mean fluorescence intensity (EGFP mRNA) (ARPE19 cells; Myristoleyl, 2.5 μM): 44289
- mean fluorescence intensity (EGFP mRNA) (ARPE19 cells; Myristoleyl, 5 μM): 10233
- mean fluorescence intensity (EGFP mRNA) (ARPE19 cells; Myristoleyl, 10 μM): 2166
- mean fluorescence intensity (EGFP mRNA) (ARPE19 cells; Oleyl, 2.5 μM): 20910
- mean fluorescence intensity (EGFP mRNA) (ARPE19 cells; Oleyl, 5 μM): 4303
- mean fluorescence intensity (EGFP mRNA) (ARPE19 cells; Palmitoleyl, 2.5 μM): 34422
- mean fluorescence intensity (EGFP mRNA) (ARPE19 cells; Palmitoleyl, 5 μM): 7527
- mean fluorescence intensity (EGFP mRNA) (ARPE19 cells; Palmitoleyl, 10 μM): 7536
- mean fluorescence intensity (EGFP mRNA) (ARPE19 cells; Petroselinyl, 2.5 μM): 25416
- mean fluorescence intensity (EGFP mRNA) (ARPE19 cells; Petroselinyl, 5 μM): 5810
- mean fluorescence intensity (EGFP mRNA) (ARPE19 cells; Petroselinyl, 10 μM): 5129
- mean fluorescence intensity after transfection of EGFP mRNA (HepG2 cells [4]; Dodecanal, 5 μM): 1786
- mean fluorescence intensity after transfection of EGFP mRNA (HepG2 cells [4]; Dodecanal, 10 μM): 1477
- mean fluorescence intensity after transfection of EGFP mRNA (HepG2 cells [4]; Dodecanal, 15 μM): 952
- mean fluorescence intensity after transfection of EGFP mRNA (HepG2 cells [4]; Myristoleyl, 5 μM): 1046
- mean fluorescence intensity after transfection of EGFP mRNA (HepG2 cells [4]; Oleyl, 5 μM): 893
- mean fluorescence intensity after transfection of EGFP mRNA (HepG2 cells [4]; Palmitoleyl, 5 μM): 3286
- mean fluorescence intensity after transfection of EGFP mRNA (HepG2 cells [4]; Palmitoleyl, 10 μM): 3553
- mean fluorescence intensity after transfection of EGFP mRNA (HepG2 cells [4]; Palmitoleyl, 15 μM): 766
- mean fluorescence intensity after transfection of EGFP mRNA (HepG2 cells [4]; Petroselinyl, 5 μM): 4095
- mean fluorescence intensity after transfection of EGFP mRNA (HepG2 cells [4]; Petroselinyl, 10 μM): 188
- mean fluorescence intensity after transfection of EGFP mRNA (HepG2 cells [4]; Petroselinyl, 15 μM): 821
